Data from patent publication US10059973B2, “Carbohydrate esters as inducers for gene expression” (priority 2012, dated 2018).

Assays:
T. reesei Rut-C30 = assay: Protein (cellulase) induction in T. reesei Rut-C30 shake-flask culture, CMC endo-glucanase activity assay; assay type: cell-based, Trichoderma reesei; details: for Cellulase activity at day 3 / Cellulase activity at day 3 (specific induction power, U/mg inducer): 2% glucose as carbon source
Text: To prepare for protein induction studies using Trichoderma, a citrate minimal media was first prepared. The media composition, as modified from England et al. (U.S. Pat. […] The final pH was adjusted to 5.50 using NaOH. […] It was obtained from ATCC (56765) and developed as a catabolic de-repressed strain from classic mutagenesis of parent strain NG14 and the wild type […] al., BMC Genomics, 9:327, (2008)). To propagate Trichoderma, the freeze-dried stock from ATCC was first dissolved in sterile deionized water and then transferred onto a PDA (potato dextrose agar) plate (Teknova […]) using a sterile loop. The PDA plate was maintained at room temperature under white fluorescent light and after approximately 7 days, green Trichoderma spores could be seen. In addition, 60% (w/v) glucose stock was prepared and used both as control and as the carbon source for Trichoderma growth. […] Bacteriol., 73:269-278, (1957)).

Pullularia pullulans = details: cited from earlier work
[1] = test system: cellulase gene promoter in Trichoderma reesei; details: cited from earlier work
Penicillium purpurogenum = details: cited from earlier work
[2] = test system: Aspergillus niger (NRRL 330); assay: Protein (amylase) induction in Aspergillus niger culture, amylase activity assay; assay type: cell-based; details: inducer 0.05 g/L; 1% sorbitol as carbon source; 24 hours after inducer addition
Protocol: The procedure of preparing maltose acetate chemically and subsequent sample recovery follows the same procedure described in Example 4. […] Aspergillus niger (NRRL 330), obtained from ARS culture collection, was maintained on a PDA plate and allowed to sporulate for a week at room temperature. For inoculation, a 2 cm by 2 cm area agar plug was first removed and suspended in 5 mL sterile water. […] After additional 24 hours, the cultures were assayed for amylase activity following similar procedures to those detailed by Barton et al. (J.

Molecule: O=C[C@H](O)[C@@H](O)[C@H](O[C@@H]1O[C@H](CO)[C@@H](O)[C@H](O)[C@H]1O)[C@H](O)CO [cellobiose, reference compound]
- Cellulase activity at day 3 (T. reesei Rut-C30; inducer 1.0 g/L): 0.34 U/mL
- Cellulase activity at day 3 (specific induction power, U/mg inducer) (T. reesei Rut-C30; inducer 1.0 g/L): 0.34 U/mg

Molecule: Sucrose monopalmitate
- induced sucrase yield relative to sucrose (Pullularia pullulans): 80 times

Molecule: OC[C@H]1O[C@@H](O[C@H]2C(O)O[C@H](CO)[C@@H](O)[C@@H]2O)[C@H](O)[C@@H](O)[C@@H]1O (stereo partly shown) [sophorose, reference compound]
- Cellulase activity at day 3 (T. reesei Rut-C30; inducer 0.13 g/L): 3.58 U/mL
- Cellulase activity at day 3 (specific induction power, U/mg inducer) (T. reesei Rut-C30; inducer 0.13 g/L): 26.9 U/mg
- Cellulase activity at day 3 (T. reesei Rut-C30; inducer 1.3 g/L): 15.0 U/mL
- Cellulase activity at day 3 (specific induction power, U/mg inducer) (T. reesei Rut-C30; inducer 1.3 g/L): 11.2 U/mg
- activity as cellulase inducer relative to cellobiose [1]: 2500 times

Molecule: 6″ acetylated lactose monoester [Purified lactose monoacetate]
- Cellulase activity at day 3 (T. reesei Rut-C30; inducer 0.09 g/L): 2.05 U/mL
- Cellulase activity at day 3 (specific induction power, U/mg inducer) (T. reesei Rut-C30; inducer 0.09 g/L): 22.0 U/mg
- specific induction activity relative to unmodified lactose (T. reesei Rut-C30; inducer 0.09 g/L, day 3): approximately 34 times
- Cellulase activity at day 3 (T. reesei Rut-C30; inducer 0.51 g/L): 10.1 U/mL
- Cellulase activity at day 3 (specific induction power, U/mg inducer) (T. reesei Rut-C30; inducer 0.51 g/L): 19.9 U/mg
- specific induction activity relative to unmodified lactose (T. reesei Rut-C30; inducer 0.51 g/L, day 3): ~31 times
- Cellulase activity at day 3 (T. reesei Rut-C30; inducer 1.05 g/L): 14.0 U/mL
- Cellulase activity at day 3 (specific induction power, U/mg inducer) (T. reesei Rut-C30; inducer 1.05 g/L): 13.3 U/mg
- specific induction activity relative to unmodified lactose (T. reesei Rut-C30; inducer 1.05 g/L, day 3): ~21 times

Molecule: mono-O-acetyl cellobiose
- effectiveness at inducing cellulase (in words) (Penicillium purpurogenum): the most active inducer tested

Molecule: OC[C@H]1O[C@H](O[C@H]2[C@H](O)[C@@H](O)[C@H](O)O[C@@H]2CO)[C@H](O)[C@@H](O)[C@@H]1O [Maltose, maltose]
- Amylase activity at day 3 [2]: 2.11 U/mL
- Amylase activity at day 3 (specific induction power, U/mg inducer) [2]: 44.0 U/mg

Molecule: CC(=O)OC[C@H]1O[C@@H](O[C@@H]2[C@@H](O)[C@H](O)[C@@H](COC(C)=O)O[C@@H]2O)[C@H](O)[C@@H](O)[C@@H]1O [Purified sophorose diacetate, 6′ and 6″ acetylated alpha-sophorose diester]
- Cellulase activity at day 3 (T. reesei Rut-C30; inducer 0.03 g/L): 6.33 U/mL
- Cellulase activity at day 3 (specific induction power, U/mg inducer) (T. reesei Rut-C30; inducer 0.03 g/L): 211.0 U/mg
- specific induction power relative to sophorose (T. reesei Rut-C30; inducer 0.03 g/L, day 3): ~8 times
- Cellulase activity at day 3 (T. reesei Rut-C30; inducer 0.12 g/L): 23.2 U/mL
- Cellulase activity at day 3 (specific induction power, U/mg inducer) (T. reesei Rut-C30; inducer 0.12 g/L): 193.3 U/mg
- specific induction power relative to unmodified sophorose (T. reesei Rut-C30; inducer 0.12 g/L, day 3): ~7 times

Molecule: OC[C@H]1O[C@@H](O[C@H]2[C@H](O)[C@@H](O)C(O)O[C@@H]2CO)[C@H](O)[C@@H](O)[C@H]1O (stereo partly drawn) [lactose, D-lactose, reference compound]
- Cellulase activity at day 3 (T. reesei Rut-C30; inducer 1.0 g/L): 0.64 U/mL
- Cellulase activity at day 3 (specific induction power, U/mg inducer) (T. reesei Rut-C30; inducer 1.0 g/L): 0.64 U/mg
